Target: T1, human SK3 channel (hKCa2.3) (Homo sapiens, UniProt Q9UGI6)
T1 construct: expressed in transfected cells
Assay: Automated whole cell patch-clamp (QPatch 16 HT), inhibition of SK3 current
Assay type: cell-based
Conditions: HEK-293 cells stably expressing hKCa2.3; symmetrical K+ solutions, free calcium 400 nM; effects normalized to N-methyl bicuculline
Procedure, shortened: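 HEK-293 cells stably expressing hKCa2.3, automated whole-cell patch clamp in symmetrical K+ (400 nM free intracellular Ca2+, pH 7.2; external pH 7.4). Held at 0 mV, ramps −80 to +80 mV (200 ms) every 5 s; increasing compound concentrations, currents run-down corrected and normalized to 100 μM N-methyl bicuculline; IC50 reported.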

Row | Compound | IC50 [µM]
1 | CCc1cc(C(CC(=O)N(CC)CCO)Nc2nc3ccccc3[nH]2)ccc1F (centres unmarked) [Example 65, 3-[(1H-1,3-benzodiazol-2-yl)amino]-N-ethyl-3-(3-ethyl-4-fluorophenyl)-N-(2-hydroxyethyl)propanamide] | < 10
2 | CCOC(=O)NCc1ccc2[nH]c(NC(CC(=O)N(CC)CCO)c3cccc(C(F)(F)F)c3)nc2c1 (centres unmarked) [Example 66, Ethyl N-{[2-({2-[ethyl(2-hydroxyethyl)carbamoyl]-1-[3-(trifluoromethyl)phenyl]ethyl}amino)-1H-1,3-benzodiazol-5-yl]methyl}carbamate] | 10 to 100
3 | O=C(CC(Nc1nc2ccccc2[nH]1)c1cccc(C(F)(F)F)c1)NCCOC(F)(F)F (centres unmarked) [Example 67, 3-[(1H-1,3-benzodiazol-2-yl)amino]-N-[2-(trifluoromethoxy)ethyl]-3-[3-(trifluoromethyl)phenyl]propanamide] | < 10
4 | O=C(CC(Nc1nc2ccccc2[nH]1)c1cccc(C(F)(F)F)c1)NCCOCC(F)(F)F (centres unmarked) [Example 68, 3-[(1H-1,3-benzodiazol-2-yl)amino]-N-[2-(2,2,2-trifluoroethoxy)ethyl]-3-[3-(trifluoromethyl)phenyl]propanamide] | < 10
5 | O=C(CC(Nc1nc2ccccc2[nH]1)c1cccc(C(F)(F)F)c1)NCc1ccon1 (centres unmarked) [Example 71, 3-[(1H-1,3-benzodiazol-2-yl)amino]-N-(1,2-oxazol-3-ylmethyl)-3-[3-(trifluoromethyl)phenyl]propanamide] | < 10
6 | O=C(CC(Nc1nc2ccccc2[nH]1)c1cccc(C(F)(F)F)c1)NCc1nc2ccccc2o1 (centres unmarked) [Example 72, 3-[(1H-1,3-benzodiazol-2-yl)amino]-N-(1,3-benzoxazol-2-ylmethyl)-3-[3-(trifluoromethyl)phenyl]propanamide] | < 10
7 | COCC(C)NC(=O)CC(Nc1nc2ccccc2[nH]1)c1cccc(C(F)(F)F)c1 (centres unmarked) [Example 73, 3-[(1H-1,3-benzodiazol-2-yl)amino]-N-(1-methoxypropan-2-yl)-3-[3-(trifluoromethyl)phenyl]propanamide] | < 10
8 | Cc1noc(C)c1CCNC(=O)CC(Nc1nc2ccccc2[nH]1)c1cccc(C(F)(F)F)c1 (centres unmarked) [Example 74, 3-[(1H-1,3-benzodiazol-2-yl)amino]-N-[2-(dimethyl-1,2-oxazol-4-yl)ethyl]-3-[3-(trifluoromethyl)phenyl]propanamide] | < 10
9 | O=C(CC(Nc1nc2ccccc2[nH]1)c1cccc(C(F)(F)F)c1)NCc1nccs1 (centres unmarked) [Example 75, 3-[(1H-1,3-benzodiazol-2-yl)amino]-N-(1,3-thiazol-2-ylmethyl)-3-[3-(trifluoromethyl)phenyl]propanamide] | < 10
10 | Cc1cccc(C(C)NC(=O)CC(Nc2nc3ccccc3[nH]2)c2cccc(C(F)(F)F)c2)n1 (centres unmarked) [Example 76, 3-[(1H-1,3-benzodiazol-2-yl)amino]-N-[1-(6-methylpyridin-2-yl)ethyl]-3-[3-(trifluoromethyl)phenyl]propanamide] | < 10
11 | Cc1ncc(CNC(=O)CC(Nc2nc3ccccc3[nH]2)c2cccc(C(F)(F)F)c2)s1 (centres unmarked) [Example 77, 3-[(1H-1,3-benzodiazol-2-yl)amino]-N-[(2-methyl-1,3-thiazol-5-yl)methyl]-3-[3-(trifluoromethyl)phenyl]propanamide] | < 10
12 | O=C(CC(Nc1nc2ccccc2[nH]1)c1cccc(C(F)(F)F)c1)NCc1cncnc1 (centres unmarked) [Example 78, 3-[(1H-1,3-benzodiazol-2-yl)amino]-N-(pyrimidin-5-ylmethyl)-3-[3-(trifluoromethyl)phenyl]propanamide] | < 10
13 | Cc1cc(CNC(=O)CC(Nc2nc3ccccc3[nH]2)c2cccc(C(F)(F)F)c2)ccn1 (centres unmarked) [Example 79, 3-[(1H-1,3-benzodiazol-2-yl)amino]-N-[(2-methylpyridin-4-yl)methyl]-3-[3-(trifluoromethyl)phenyl]propanamide] | < 10
14 | COCCNC(=O)CC(Nc1nc2ccccc2[nH]1)c1cc(C)c(F)c(C)c1 (centres unmarked) [Example 80, 3-[(1H-1,3-benzodiazol-2-yl)amino]-3-(4-fluoro-3,5-dimethylphenyl)-N-(2-methoxyethyl)propanamide] | < 10
15 | O=C(CC(Nc1nc2ccccc2[nH]1)c1cccc(SC(F)(F)F)c1)NCCOC(F)(F)F (centres unmarked) [Example 81, 3-[(1H-1,3-benzodiazol-2-yl)amino]-N-[2-(trifluoromethoxy)ethyl]-3-{3-[(trifluoromethyl)sulfanyl]phenyl}propanamide] | < 10
16 | COCCNC(=O)CC(Nc1nc2ccccc2[nH]1)c1cccc(SC(F)(F)F)c1 (centres unmarked) [Example 82, 3-[(1H-1,3-benzodiazol-2-yl)amino]-N-(2-methoxyethyl)-3-{3-[(trifluoromethyl)sulfanyl]phenyl}propanamide] | < 10
17 | O=C(CC(Nc1nc2ccccc2[nH]1)c1cccc(OC(F)(F)F)c1)NCCOC(F)(F)F (centres unmarked) [Example 83, 3-[(1H-1,3-benzodiazol-2-yl)amino]-N-[2-(trifluoromethoxy)ethyl]-3-[3-(trifluoromethoxy)phenyl]propanamide] | < 10
18 | COCCNC(=O)CC(Nc1nc2ccccc2[nH]1)c1cccc(OC(F)(F)F)c1 (centres unmarked) [Example 84, 3-[(1H-1,3-benzodiazol-2-yl)amino]-N-(2-methoxyethyl)-3-[3-(trifluoromethoxy)phenyl]propanamide] | < 10
19 | N#CCNC(=O)CC(Nc1nc2ccccc2[nH]1)c1cccc(OC(F)(F)F)c1 (centres unmarked) [Example 85, 3-[(1H-1,3-benzodiazol-2-yl)amino]-N-(cyanomethyl)-3-[3-(trifluoromethoxy)phenyl]propanamide] | < 10
20 | Cc1cc(C(CC(=O)NCC#N)Nc2nc3ccccc3[nH]2)cc(C)c1F (centres unmarked) [Example 86, 3-[(1H-1,3-benzodiazol-2-yl)amino]-N-(cyanomethyl)-3-(4-fluoro-3,5-dimethylphenyl)propanamide] | < 10
21 | COCCNC(=O)CC(Nc1nc2ccccc2[nH]1)c1cccc(SC2CCC2)c1 (centres unmarked) [Example 87, 3-[(1H-1,3-benzodiazol-2-yl)amino]-3-[3-(cyclobutylsulfanyl)phenyl]-N-(2-methoxyethyl)propanamide] | < 10
22 | O=C(CC(Nc1nc2ccccc2[nH]1)c1cccc(OC(F)(F)F)c1)NCc1ccon1 (centres unmarked) [Example 88, 3-[(1H-1,3-benzodiazol-2-yl)amino]-N-(1,2-oxazol-3-ylmethyl)-3-[3-(trifluoromethoxy)phenyl]propanamide] | < 10
23 | O=C(CC(Nc1nc2ccccc2[nH]1)c1cccc(SC(F)(F)F)c1)NCc1nc2ccccc2o1 (centres unmarked) [Example 89, 3-[(1H-1,3-benzodiazol-2-yl)amino]-N-(1,3-benzoxazol-2-ylmethyl)-3-{3-[(trifluoromethyl)sulfanyl]phenyl}propanamide] | < 10
24 | O=C(CC(Nc1nc2ccccc2[nH]1)c1cccc(OC(F)(F)F)c1)NCc1nc2ccccc2o1 (centres unmarked) [Example 90, 3-[(1H-1,3-benzodiazol-2-yl)amino]-N-(1,3-benzoxazol-2-ylmethyl)-3-[3-(trifluoromethoxy)phenyl]propanamide] | < 10
25 | COCCNC(=O)CC(C)(Nc1nc2cc(F)ccc2[nH]1)c1cccc(C(F)(F)F)c1 (centres unmarked) [Example 91, 3-[(5-fluoro-1H-1,3-benzodiazol-2-yl)amino]-N-(2-methoxyethyl)-3-[3-(trifluoromethyl)phenyl]butanamide] | < 10
26 | COCCNC(=O)CC(Nc1nc2ccccc2[nH]1)c1cccc(SC)c1 (centres unmarked) [Example 92, 3-[(1H-1,3-benzodiazol-2-yl)amino]-N-(2-methoxyethyl)-3-[3-(methylsulfanyl)phenyl]propanamide] | < 10

Source: patent US11274092B2, “Potassium channel inhibitors” (ACESION PHARMA ApS, priority 2016, dated 2022)
